Data taken from US6270780A, “Cosmetic compositions containing resveratrol” (Chesebrough-Pond's USA Co., division of Conopco, priority 1998, dated 2001).
Like-named read-outs stand apart in the source and are kept apart here.

System: ZR75 cells
Assay: 3H-thymidine incorporation (DNA synthesis) / proliferation of ZR75 cells, estrogen-like activity
Type: cell-based, human
Settings: for activity at 0.001 µM / activity at 0.01 µM / activity at 0.1 µM / activity at 1 µM: Homo sapiens, control water; for activity at 0.001 µM: 1 nM; for activity at 0.01 µM: 10 nM; for activity at 0.1 µM: 100 nM; for activity at 1 µM: 1000 nM, read-out: DNA synthesis (% of Control)
Description: The following test was employed to determine whether resveratrol has an estrogen-like activity:
The ZR75 cell line is a ductal breast carcinoma cell line, originally isolated from malignant mammary epithelium of a person (Engel et al., Human breast carcinoma cells in continuous culture: A review., Cancer Res., 38: 4327-4339, 1978). This cell line contains receptors for estrogen, progesterone and other steroid hormones, but responds through an increase in proliferation only to estrogen. The cell line contains high affinity estrogen-specific receptors. Therefore, this cell line is used for testing estrogen-like activity (Markiewicz et al., In vitro bioassays of non-steroidal phytoestrogens, J. Steroid Biochem. Molec. Biol., 45: 399-405, 1993)
Methodology Used for Determining the Rate of DNA Synthesis in Cells
The incorporation of ^3 H-thymidine by cultured cells was used as an assay of cell proliferation (both for ZR75 cells and for keratinocytes). Thymidine is one of four deoxynucleosides which are the monomeric units of DNA. Prior to cell division of a somatic cell, the complete genome of the cell undergoing cell division is replicated. This involves large scale DNA synthesis by the cell and enables both daughter cells to receive identical copies of the genetic material. When ^3 H-thymidine is included in the culture media of cells which are synthesizing DNA in preparation for cell division then the labeled thymidine is incorporated into the newly synthesized DNA. The extent of incorporation of ^3 H-thymidine into a population of cells is proportional to the rate of DNA synthesis by this population of cells and therefore an indication of their cellular proliferation.
ZR75 cells (from American Type Culture Collection, Rockville, Md.) were grown in RPMI1640 media (from Gibco Life Technologies) with 10% fetal bovine serum (FBS) , 100 units penicillin per ml and 100 units of streptomycin per ml. All incubations were performed at 37° C. in 5% CO2. […] The cells were seeded at a density of one million per 75 cm2 flask. For the experiment, the cells were seeded in 24 well plates at 100,000 cells per ml per well.
After growing for 24 hours, the media was removed, the cells were washed with PBS (phosphate buffered saline, 0.01 M sodium phosphate, 0.138 M sodium chloride, 0.0027 M potassium chloride, pH 7.4) and 1 ml of RPMI 1640 without serum (but with streptomycin and penicillin) was added. Stock solutions of resveratrol in dimethyl sulfoxide (DMSO) and estradiol in water were prepared. […] After another 24 hours, one μCi of [methyl-3H] thymidine was added to each well. The media was removed after 24 hours. The cells were washed once in PBS, the PBS was removed completely and the cells were left on ice to incubate with 1 ml per well of 10% TCA (trichloroacetic acid) for 30 minutes. The plates were washed 3 times with 5% TCA to remove all traces of thymidine which wasn't incorporated into the cells. 500 μl of 0.1M sodium hydroxide was added to each well and the plates were incubated at room temperature for at least 30 minutes. 250 μl of each sample was transferred to scintillation vials and after adding 5 mL of counting fluid, the vials were counted for 5 minutes each on a setting for tritium. […] Values were expressed as mean of quadruplicate wells +/- standard deviation.

## C[C@]12CC[C@@H]3c4ccc(O)cc4CC[C@H]3[C@@H]1CC[C@@H]2O [Estradiol, estradiol, reference compound]
ZR75, EXPT 1
  activity at 0.001 µM: 220 ± 11%
  activity at 0.01 µM: 210 ± 9.7%
  activity at 0.1 µM: 205 ± 15.6%
  activity at 1 µM: 190 ± 24.5%
ZR75, EXPT 2
  activity at 0.001 µM: 133 ± 29%
  activity at 0.01 µM: 152 ± 17.7%
  activity at 0.1 µM: 156 ± 11.7%
  activity at 1 µM: 142 ± 18.3%
Table 1 summary
  proliferation of ZR 75 cells: stimulated proliferation of ZR 75 cells
